Our source for the CD minimum and absorbance plateau values is patent US20060057671A1 (priority 2004, published 2006).

The format of data set [1] is physicochemical.
The format of data set [2] is physicochemical. This is another data set of the same source.

Like-named read-outs stand apart in the source and are kept apart here.

For poly-L-lysine, the CD minimum entry in data set [1] (pH 7) is given as “approximately 204 nm”; in data set [1] (pH 11), “approximately 216 nm”. For the same substance, the absorbance plateau result in data set [2] (pH 7) is “approximately 0.22”; in data set [2] (pH 11), “approximately 0.12”.
